Results: patent publication US8367718B2, “Epigallocatechin gallate trimer and α-glucosidase inhibitor containing epigallocatechin gallate polymer” (Suntory Holdings Limited, priority 2008, dated 2013)
“Also recorded” adds a separate entry of the source.

Assays:
maltase = settings: background art, literature values; read-out: maltase inhibitory activity IC50; cited from earlier work
α-glucosidase = test: Alpha-glucosidase inhibitory activity of EGCG polymers (p-nitrophenyl-α-D-glucopyranoside substrate, A405 nm); format: biochemical; settings: for α-glucosidase inhibitory activity (in words): qualitative statement; for inhibitory activity relative to the EGCG monomer: α-glucosidase, compared with EGCG monomer
Description: A […] sodium phosphate buffer solution was prepared by blending 0.1 M NaH2PO4.2H2O and 0.1M Na2HPO4.12H2O and the pH was adjusted to 7.0. To this, 2 g/L bovine serum albumin (F-V, manufactured by Nacalai Tesque Inc., pH 5.2, purity 96%) and 0.2 g/L NaN3 (manufactured by Nacalai Tesque Inc., special grade reagent) were added. An enzyme solution was prepared by dissolving α-glucosidase (manufactured by Wako Pure Chemical Industries Ltd., derived from yeast, 100 units/mg) in the above buffer solution so as to obtain 0.5 units/mg protein /ml (100 μg/20 ml). A substrate solution was prepared by dissolving p-nitrophenyl-α-D-glucopyranoside (manufactured by Nacalai Tesque Inc., special grade reagent) in the buffer solution so as to obtain 5 mM (7.525 mg/5 ml).
Of the samples used for evaluation, theasinensin (TSN)-A and TSN-D were synthesized in accordance with the paper (Hashimoto, F. Nonaka, G. Nishioka, I. Chem. Pharm. Bull. 36 (5), 1676-1684 (1988)) and oolongtheanin-gallate (hereinafter referred to as “OTNG”) were synthesized in accordance with the method described in the paper of J. Agric. Food Chem. 53, 4593-4598 (2005).
These samples were prepared so as to satisfy 10 mg/ml DMSO and serially diluted 6 times by doubling dilution. Using a 96-well microplate, enzyme solution (45 μL) was added to a sample solution (10 μL) and pre-incubated at 37° C. for 5 minutes. Thereafter, the substrate solution (45 μL) was added and absorbance was measured at A 405 nm. After incubation was performed at 37° C. for 5 minutes, absorbance was measured at A 405 nm. The inhibition rate was calculated as a difference from the absorbance at A405 nm of a control, which contains DMSO alone in place of a sample. Each activity measurement was performed twice.

For 3-sophoroside-5-glucoside of peonidin, the IC50 (maltase) is listed as 200 µM.

For `O=C(O[C@@H]1Cc2c(O)cc(O)cc2O[C@@H]1c1cc(O)c(O)c(O)c1-c1c([C@H]2Oc3cc(O)cc(O)c3C[C@H]2OC(=O)c2cc(O)c(O)c(O)c2)cc(O)c(O)c1O)c1cc(O)c(O)c(O)c1` (single isomer, unassigned) [TSN-A, theasinensin A], the IC50 (maltase) is given as 142 µM.

In the case of `O=C(O[C@@H]1Cc2c(O)cc(O)cc2O[C@@H]1c1cc(O)c(O)c(O)c1-c1c([C@H]2Oc3cc(O)cc(O)c3C[C@H]2OC(=O)c2cc(O)c(O)c(O)c2)cc(O)c(O)c1O)c1cc(O)c(O)c(O)c1` (single isomer, unassigned) [TSN-D, theasinensin-D], the “α-glucosidase inhibitory activity (in words)” value (α-glucosidase) is reported as “strong α-glucosidase inhibitory activity”.

With `O=C(O[C@@H]1Cc2c(cc(O)c(Cc3c(O)cc(O)c4c3O[C@H](c3cc(O)c(O)c(O)c3)[C@H](OC(=O)c3cc(O)c(O)c(O)c3)C4)c2O)O[C@@H]1c1cc(O)c(O)c(O)c1)c1cc(O)c(O)c(O)c1` [OHBF-B, oolong homobisflavan-B] the “α-glucosidase inhibitory activity (in words)” value (α-glucosidase) was “strong α-glucosidase inhibitory activity”.

In the case of `O=C(OC1Cc2c(O)cc(O)c(Cc3c(O)c(Cc4c(O)c(Cc5c(O)cc(O)c6c5OC(c5cc(O)c(O)c(O)c5)C(OC(=O)c5cc(O)c(O)c(O)c5)C6)c5c(c4O)CC(OC(=O)c4cc(O)c(O)c(O)c4)C(c4cc(O)c(O)c(O)c4)O5)c4c(c3O)CC(OC(=O)c3cc(O)c(O)c(O)c3)C(c3cc(O)c(O)c(O)c3)O4)c2OC1c1cc(O)c(O)c(O)c1)c1cc(O)c(O)c(O)c1` [OHBF-tetramer-1, (2R,3R)-8-(H2R,3R)-8-(((2R,3R)-8-(((2R,3R)-5,7-dihydroxy-3-(3,4,5-trihydroxybenzoyloxy)-2-(3,4,5-trihydroxyphenyl)chroman-8-yl)methyl)-5,7-dihydroxy-3-(3,4,5-trihydroxybenzoyloxy)-2-(3,4,5-trihydroxyphenyl)chroman-6-yl)methyl)-5,7-dihydroxy-3-(3,4,5-trihydroxybenzoyloxy)-2-(3,4,5-trihydroxyphenyl)chroman-6-yl)methyl)-5,7-dihydroxy-2-(3,4,5-trihydroxyphenyl)chroman-3-yl 3,4,5-trihydroxybenzoate], the “α-glucosidase inhibitory activity (in words)” value (α-glucosidase; listed as Oolong homobisflavan-tetramer-1) is reported as “particularly strong activities”, the “α-glucosidase inhibitory activity (in words)” value (α-glucosidase; listed as oolong homobisflavan-tetramer-1) is reported as “significant inhibitory activity; also recorded: high activity” and the “inhibitory activity relative to the EGCG monomer” value (α-glucosidase) is reported as 10 times.

For `O=C(OC1Cc2c(O)cc(O)c(Cc3c(O)c(Cc4c(O)c(Cc5c(O)cc(O)c6c5OC(c5cc(O)c(O)c(O)c5)C(OC(=O)c5cc(O)c(O)c(O)c5)C6)c(O)c5c4OC(c4cc(O)c(O)c(O)c4)C(OC(=O)c4cc(O)c(O)c(O)c4)C5)c4c(c3O)CC(OC(=O)c3cc(O)c(O)c(O)c3)C(c3cc(O)c(O)c(O)c3)O4)c2OC1c1cc(O)c(O)c(O)c1)c1cc(O)c(O)c(O)c1` [OHBF-tetramer-2, (2R,2′R,3R,3′R)-8,8′-(2R,2′R,3R,3′R)-8,8′-methylenebis(5,7-dihydroxy-3-(3,4,5-trihydroxybenzoyloxy)-2-(3,4,5-trihydroxyphenyl)chroman-8,6-diyl)bis(methylene)bis(5,7-dihydroxy-2-(3,4,5-trihydroxyphenyl)chroman-8,3-diyl) bis(3,4,5-trihydroxybenzoate)], the “α-glucosidase inhibitory activity (in words)” value (α-glucosidase) was “significant inhibitory activity”.

In the case of `O=C(O[C@@H]1Cc2c(cc(O)c(Cc3c(O)c(Cc4c(O)cc(O)c5c4O[C@H](c4cc(O)c(O)c(O)c4)[C@H](OC(=O)c4cc(O)c(O)c(O)c4)C5)c(O)c4c3O[C@H](c3cc(O)c(O)c(O)c3)[C@H](OC(=O)c3cc(O)c(O)c(O)c3)C4)c2O)O[C@@H]1c1cc(O)c(O)c(O)c1)c1cc(O)c(O)c(O)c1` [OHBF-trimer-2, (2R,3R)-8-(((2R,3R)-8-(((2R,3R)-5,7-dihydroxy-3-(3,4,5-trihydroxybenzoyloxy)-2-(3,4,5-trihydroxyphenyl)chroman-6-yl)methyl)-5,7-dihydroxy-3-(3,4,5-trihydroxybenzoyloxy)-2-(3,4,5-trihydroxyphenyl)chroman-6-yl)methyl)-5,7-dihydroxy-2-(3,4,5-trihydroxyphenyl)chroman-3-yl 3,4,5-trihydroxybenzoate], the “α-glucosidase inhibitory activity (in words)” value (α-glucosidase) is reported as “significant inhibitory activity”.

In the case of `O=C(O[C@@H]1Cc2c(cc(O)c(Cc3c(O)c(Cc4c(O)cc(O)c5c4O[C@H](c4cc(O)c(O)c(O)c4)[C@H](OC(=O)c4cc(O)c(O)c(O)c4)C5)c4c(c3O)C[C@@H](OC(=O)c3cc(O)c(O)c(O)c3)[C@@H](c3cc(O)c(O)c(O)c3)O4)c2O)O[C@@H]1c1cc(O)c(O)c(O)c1)c1cc(O)c(O)c(O)c1` [OHBF-trimer-4, (2R,3R)-8-(((2R,3R)-6-(((2R,3R)-5,7-dihydroxy-3-(3,4,5-trihydroxybenzoyloxy)-2-(3,4,5-trihydroxyphenyl)chroman-6-yl)methyl)-5,7-dihydroxy-3-(3,4,5-trihydroxybenzoyloxy)-2-(3,4,5-trihydroxyphenyl)chroman-8-yl)methyl)-5,7-dihydroxy-2-(3,4,5-trihydroxyphenyl)chroman-3-yl 3,4,5-trihydroxybenzoate], the “α-glucosidase inhibitory activity (in words)” value (α-glucosidase; listed as oolong homobisflavan-trimer-4) is reported as “particularly strong activities; also recorded: significant inhibitory activity; also recorded: high activity” and the “inhibitory activity relative to the EGCG monomer” value (α-glucosidase) is reported as 10 times.
